Measured values from patent US20220178900A1, “BIORELEVANT COMPOSITION” (BIORELEVANT.COM LTD., priority 2019, published 2022).

What was measured:
Format in all cases: physicochemical
[1] = FEDGAS dissolution media stored for 72 hrs at room temperature; details: 160 mg capsules in 900 mL; FEDGAS pH 6, pH 4.5, pH 3; room temperature storage
Experimental: The dissolution of danazol (100 mg) hard gelatine capsules was carried out in fasted state gastric media (control) and compared with biorelevant fed state gastric media at pH 6, pH 4.5 and pH 3 as described using the set up and method in the Case Study 1. Referring to FIG. 6, the dissolution in fasted gastric media is negligible even after 2 hours of dissolution. Less than 0.2% of the drug dose is dissolved even after 2 hours of dissolution. […] Dissolution reaches about 55% of the dosage form within 60 minutes in fed state gastric media at pH 6, pH4.5 and pH 3 respectively. Case Study 6—Examining Physicochemical Properties of FEDGAS Dissolution Media Stored for 72 Hrs at Room Temperature with Dissolution of Megesterol Acetate Capsules FEDGAS media at pH 6, pH 4.5 and pH 3 were prepared by adding the appropriate amount of water in a suitable container, adding the corresponding buffer concentrate and adding the appropriate amount of readily water dispersible biorelevant precursor concentrate and mixing with a magnetic stirrer until homogeneous. The three media were stored at room temperature for up to 72 hours. […] The pH, buffer capacity, surface tension and particle size (Z-average) of the FEDGAS pH 6 and FEDGAS pH 3 were measured at t=0 and at t=72 hours. […]

[2] = Dissolution in biorelevant fed state gastric media (FEDGAS), USP 2 Dissolution Apparatus at 75 rpm, HPLC; details: for pH dependence of dissolution profiles in fed state gastric media: fed state media pH 6, pH 5, pH 3; for dissolution in fed state gastric media compared with fasted state gastric media: fed state gastric media across pH 6 to pH 3
Experimental: In the case studies from 1 to 4, FEDGAS media at pH 6, pH 5 and pH 3 were prepared by adding the appropriate amount of purified water in a suitable container, adding the corresponding buffer concentrate and adding the appropriate amount of biorelevant precursor concentrate and mixing with a magnetic stirrer until homogeneous.
(§1) Three biorelevant fed state gastric media at pH 6, pH 5 and pH 3 using the composition in Table 5 were produced. The media at these three pHs were characterised by measuring pH, buffer capacity, particle size (Z-average and polydispersity using Nanosizer) and surface tension (Kruss surface tension K6). The media were stable at time zero and physically stable after 24 hours. Similarly, the key physicochemical properties were unchanged after 24 hours. The dissolution of exemestane (4 tablet×25 mg tablets) in the media was carried out using USP 2 Dissolution Apparatus at 75 rpm (n=6 vessels). Samples of the three biorelevant media were taken from the dissolution vessels and filtered through a 0.45 micrometer nylon filter with prefilter at 5 mins, 10 mins, 15 mins, 20 mins, 25 mins, 30 mins, 45 mins, 60 mins, 90 mins and 120 mins and analysed for exemestane content by HPLC. […] Within 30 minutes more than 80% of the drug was dissolved across the three media.

[3] = Dissolution in fasted state gastric media (control experiment); details: for drug dose dissolved: after 2 hours of dissolution, fasted state gastric media
Experimental: as §1
The dissolution of Sturgeron (15 mg cinnarizine immediate release tablets) was tested in a fasted gastric media (control experiment) and compared with fed gastric media at pH 6, pH 5 and pH 3 using the same dissolution set up as described previously. The dissolution profile of this drug product in the fasted gastric media indicates this basic drug cinnarizine dissolves rapidly in the fasted stomach. […]
The dissolution of danazol (100 mg) hard gelatine capsules was carried out in fasted state gastric media (control) and compared with biorelevant fed state gastric media at pH 6, pH 4.5 and pH 3 as described using the set up and method in the Case Study 1. […] Case Study 6—Examining Physicochemical Properties of FEDGAS Dissolution Media Stored for 72 Hrs at Room Temperature with Dissolution of Megesterol Acetate Capsules FEDGAS media at pH 6, pH 4.5 and pH 3 were prepared by adding the appropriate amount of water in a suitable container, adding the corresponding buffer concentrate and adding the appropriate amount of readily water dispersible biorelevant precursor concentrate and mixing with a magnetic stirrer until homogeneous. […]

[4] = Dissolution in biorelevant fed state gastric media (FEDGAS), USP 2 Dissolution Apparatus at 75 rpm, HPLC; details: within 60 minutes; fed state gastric media at pH 6, pH 4.5 and pH 3

In the case of `CC(=O)O[C@]1(C(C)=O)CC[C@H]2[C@@H]3C=C(C)C4=CC(=O)CC[C@]4(C)[C@H]3CC[C@@]21C` [megesterol acetate], the “dissolution profiles in media stored t=0, 24, 48, 72 hours” value [1] is reported as “identical”.

With `C=C1C[C@@H]2[C@H](CC[C@]3(C)C(=O)CC[C@@H]23)[C@@]2(C)C=CC(=O)C=C12` [exemestane] the “pH dependence of dissolution profiles in fed state gastric media” value [2] was “not sensitive to different pHs” and the drug dissolved ([2]; within 30 minutes, across the three fed state media pH 6, pH 5 and pH 3, 4 x 25 mg tablets) was “more than 80%”.

For `C(=C\c1ccccc1)/CN1CCN(C(c2ccccc2)c2ccccc2)CC1` [cinnarizine], the “dissolution in fed state gastric media compared with fasted state gastric media” value [2] was “slower drug dissolution in all fed state gastric media”, the “pH dependence of dissolution profiles in fed state gastric media” value [2] was “faster at lower pH” and the drug dissolved ([3]; within 30 minutes, fasted gastric media) was about 90%.

With `Cc1cccc(Nc2ccccc2C(=O)O)c1C` [mefenamic acid] the “dissolution in fed state gastric media compared with fasted state gastric media” value [2] was “considerably more rapidly”, the “Dissolution, % of the dosage form” value ([2]; within 30 minutes, fed state gastric media pH 3) was about 10% and the “Dissolution, % of the dosage form” value ([2]; within 30 minutes, fed state gastric media pH 5) was about 25%. For the same compound, the “Dissolution, % of the dosage form” value ([2]; within 30 minutes, fed state gastric media pH 6) was “about 45%” and the drug dose dissolved [3] was “Less than 0.1%”.

With `C#C[C@]1(O)CC[C@H]2[C@@H]3CCC4=Cc5oncc5C[C@]4(C)[C@H]3CC[C@@]21C` [danazol] the “dissolution in fed state gastric media compared with fasted state gastric media” value [2] was “considerably more rapidly”, the drug dose dissolved [3] was “Less than 0.2%” and the “Dissolution, % of the dosage form” value [4] was “about 55%”.
